Common to all, as to type: cell-based
The subject of series [1] is HIV-1 (IIIB). Kind of series: Antiviral assay in MT-4 cells. Particulars: Human immunodeficiency virus 1, MT4, 120 h; replication of HIV-1 (IIIB) in MT-4 cells, 5 days incubation, Cell Titer Glo. The protocol:
Example 24: HIV MT-4 Antiviral and Cytotoxicity Assay
Antiviral Assay in MT-4 Cells
Compounds were tested in a high-throughput 384-well assay format for their ability to inhibit the replication of HIV-1 (IIIB) in MT-4 cells. Compounds were serially diluted (1:3) in DMSO on 384-well polypropylene plates and further diluted 200-fold into complete RPMI media (10% FBS, 1% P/S) using the Biotek Micro Flow and Labcyte ECHO acoustic dispenser. Each plate contained up to 8 test compounds, with negative (No Drug Control) and 5 μM AZT positive controls. MT-4 cells were pre-infected with 10 μL of either RPMI (mock-infected) or a fresh 1:250 dilution of HIV-1 IIIB concentrated virus stock. Infected and uninfected MT-4 cells were further diluted in complete RPMI media and added to each plate using a Micro Flow dispenser. After 5 days incubation in a humidified and temperature controlled incubator (37° C.), Cell Titer Glo (Promega) was added to the assay plates and chemiluminescence read using an Envision plate-reader. EC50 values were defined as the compound concentration that causes a 50% decrease in luminescence signal, and were calculated using a sigmoidal dose-response model to generate curve fits.
In general terms: Cellular ATP, detected with luciferase, serves as a proxy for viable cell number.

A short description of series [2]: Cytotoxicity assay in MT-4 cells. The note with it: human; uninfected MT-4 cells, 5 days incubation, Cell Titer Glo. Here is the method:
Cytotoxicity Assay in MT-4 Cells Assays were performed as above except uninfected MT-4 cells were added to each well containing test compound. In addition, 10 μM puromycin was added to the last column of each assay plate to assess a base level of cytotoxicity.

Series [3] concerns pLai RLuc reporter virus. The experiment in a line: HIV MT-4 serum shift antiviral reporter assay. The note with it: Human immunodeficiency virus 1, MT4, 72 h. The protocol: Example 25: HIV MT-4 Serum Shift Antiviral Reporter Assay
To quantify the amount of protein binding to human serum, compounds were serially diluted (1:3) in DMSO and acoustically transferred onto 384-well assay plates via a Labcyte ECHO robot. Each plate contained up to 8 test compounds, including negative and positive controls, (DMSO, 5 μM AZT respectively). Assay plates were prepared in duplicate, and tested in either CCM (cell culture media) or HS/CCM (human serum/cell culture media). MT-4 cells were first pre-infected with pLai RLuc reporter virus for 2 h at 37° C., then further diluted in either CCM (RPMI media, 10% FBS, 1% P/S) or HS/CCM (RPMI media, 10% FBS, 50% HS, 1% P/S), and subsequently added to each plate using a Biotek Micro Flow dispenser. After a 72-h incubation in a humidified and temperature controlled incubator (37° C.), Renilla Glo (Promega) was added to all assay plates and chemiluminescence read using an Envision plate-reader. EC50 values were defined as the compound concentration that causes a 50% decrease in luminescence signal, and were calculated using a sigmoidal dose-response model to generate curve fits. To determine the amount of protein binding, EC50 fold shifts (or EC50 shifts) were calculated by dividing EC50 (HS/CCM)/EC50 (CCM).

Setting [4] is: read-out: Antiviral Serum Shift RLuc 50% HS.
Where [5] appears, read: read-out: Antiviral Serum Shift RLuc CCM.

EC50 and CC50 data for 20 compounds are collected here from US12122776B2, “Tetracyclic compounds and uses thereof” (Gilead Sciences, Inc., priority 2020, dated 2024).

Where two headings read alike, the source gives them in different places.

`O=C(NCc1c(F)cc(F)cc1F)c1c2n3c(c(O)c1=O)C(=O)N1CCCC[C@@]3(CC2CO)C1` (stereo partly drawn) [Compound 18, (6aR)-11-hydroxy-8-(hydroxymethyl)-1,10-dioxo-N-(2,4,6-trifluorobenzyl)-1,3,4,5,6,7,8,10-octahydro-2,6a-methano[1,4]diazonino[9,1,2-cd]indolizine-9-carboxamide]: the EC50 was found to be 10.7 nM in series [1], 0.97 nM in series [3] (setting [4]) and 0.87 nM in series [3] (setting [5]). The CC50 – broadly, the concentration at which the toxic effect on the cells reaches its halfway point – at 5 days in series [2] is 25200 nM.
Turning to `CO[C@H]1CC[C@H](C)N2C[C@]13CCc1c(C(=O)NCc4c(F)cc(F)cc4F)c(=O)c(O)c(n13)C2=O` [Compound 23-2, (3S,6S,6aR)-11-hydroxy-6-methoxy-3-methyl-1,10-dioxo-N-(2,4,6-trifluorobenzyl)-1,3,4,5,6,7,8,10-octahydro-2,6a-methano[1,4]diazonino[9,1,2-cd]indolizine-9-carboxamide], the EC50 stood at 2.5 nM in series [1], 21 nM in series [3] (setting [4]) and 0.46 nM in series [3] (setting [5]). The CC50 at 5 days in series [2] was determined as 14100 nM.
For `O=C(NCc1cccc(Cl)c1F)c1c2n3c(c(O)c1=O)C(=O)N1CCCC[C@@]3(CC2)C1` [Compound 5, (6aR)—N-(3-chloro-2-fluorobenzyl)-11-hydroxy-1,10-dioxo-1,3,4,5,6,7,8,10-octahydro-2,6a-methano[1,4]diazonino[9,1,2-cd]indolizine-9-carboxamide], in that order: 2.24 nM, 6.04 nM, 0.278 nM and 4040 nM.
For `C[C@@]1(O)C[C@]23CCCCN(C2)C(=O)c2c(O)c(=O)c(C(=O)NCc4c(F)cc(F)cc4F)c1n23` [Compound 17, (6aR,8R)-8,11-dihydroxy-8-methyl-1,10-dioxo-N-(2,4,6-trifluorobenzyl)-1,3,4,5,6,7,8,10-octahydro-2,6a-methano[1,4]diazonino[9,1,2-cd]indolizine-9-carboxamide], in that order: 1.2 nM, 1.1 nM, 0.13 nM and 3170 nM.
Consider `O=C(NCc1ccc(F)cc1F)c1c2n3c(c(O)c1=O)C(=O)N1CCCC[C@]3(CC2)C1` [Compound 4, (6aS)—N-(2,4-difluorobenzyl)-11-hydroxy-1,10-dioxo-1,3,4,5,6,7,8,10-octahydro-2,6a-methano[1,4]diazonino[9,1,2-cd]indolizine-9-carboxamide], for which the EC50 in series [1] turned out to be 3.09 nM; in series [3] (setting [4]), 32.3 nM; in series [3] (setting [5]) it was 0.72 nM. Besides, the 50% cytotoxic concentration (CC50) at 5 days in series [2] stood at 5140 nM.
As for `O=C(NCc1ccc(F)cc1F)c1c2n3c(c(O)c1=O)C(=O)N1CCCC[C@]3(C[C@H]2O)C1` (single isomer, unassigned) [Compound 10-1], the EC50 in series [1] was determined as 4.98 nM; in series [3] (setting [4]) it was 121 nM; in series [3] (setting [5]), 0.715 nM. Besides, in series [2], the CC50 at 5 days was determined as 9560 nM.
For `O=C(NCc1c(F)cc(F)cc1F)c1c2n3c(c(O)c1=O)C(=O)N1CCCC[C@@]3(C[C@@H]2O)C1` (single isomer, unassigned) [Compound 9-4], in that order: 0.703 nM, 5.19 nM, 0.388 nM and 6400 nM.
For `O=C(NCc1c(F)cc(F)cc1F)c1c2n3c(c(O)c1=O)C(=O)N1CCCC[C@]3(C1)[C@@H](O)[C@@H]2O` (single isomer, unassigned) [Compound 11-4], the EC50 in series [1] amounted to 4.02 nM; in series [3] (setting [4]), 20.5 nM; in series [3] (setting [5]) it was 1.02 nM. In addition, the CC50 at 5 days in series [2] came out at 50000 nM.
Consider `O=C(NCc1c(F)cc(F)cc1F)c1c2n3c(c(O)c1=O)C(=O)N1CCCC[C@]3(C[C@H]2O)C1` (single isomer, unassigned) [Compound 9-1], for which the figures for the EC50 in series [1], in series [3] (setting [4]) and in series [3] (setting [5]) were 3.06 nM, 200 nM and 0.685 nM, respectively. Besides, the CC50 at 5 days in series [2] was 8080 nM.
For `O=C(NCc1ccc(F)cc1F)c1c2n3c(c(O)c1=O)C(=O)N1CCCC[C@@]3(C[C@@H]2O)C1` (single isomer, unassigned) [Compound 10-4], in that order: 2.47 nM, 3.3 nM, 0.405 nM and 4610 nM.
For `O=C(NCc1ccc(F)c(Cl)c1F)c1c2n3c(c(O)c1=O)C(=O)N1CCCC[C@@]3(C[C@H]2O)C1` (single isomer, unassigned) [Compound 14-1], in that order: 1.1 nM, 26 nM, 0.22 nM and 2310 nM.
For `O=C(NCc1c(F)cc(F)cc1F)c1c2n3c(c(O)c1=O)C(=O)N1CCCC[C@@]3(CC2)C1` [Compound 1, (6aR)-11-hydroxy-1,10-dioxo-N-(2,4,6-trifluorobenzyl)-1,3,4,5,6,7,8,10-octahydro-2,6a-methano[1,4]diazonino[9,1,2-cd]indolizine-9-carboxamide] the same measures were 1.35 nM, 8.71 nM, 0.299 nM and 4300 nM.
Consider `O=C(NCc1ccc(F)c(Cl)c1F)c1c2n3c(c(O)c1=O)C(=O)N1CCCC[C@@]3(C[C@@H]2O)C1` (single isomer, unassigned) [Compound 14-2], for which the EC50 is 0.73 nM in series [1], 11 nM in series [3] (setting [4]) and 0.41 nM in series [3] (setting [5]). In series [2], the midpoint of cytotoxicity, the CC50 at 5 days, lay at 2110 nM.
For `O=C(NCc1ccc(F)cc1F)c1c2n3c(c(O)c1=O)C(=O)N1CCCC[C@@]3(CC2)C1` [Compound 3, (6aR)—N-(2,4-difluorobenzyl)-11-hydroxy-1,10-dioxo-1,3,4,5,6,7,8,10-octahydro-2,6a-methano[1,4]diazonino[9,1,2-cd]indolizine-9-carboxamide], in that order: 1.78 nM, 3.11 nM, 0.175 nM and 4940 nM.
`O=C(NCc1ccc(F)cc1F)c1c2n3c(c(O)c1=O)C(=O)N1CCCC[C@]3(C[C@@H]2O)C1` (single isomer, unassigned) [Compound 10-3]: the EC50 came to 3.31 nM in series [1], 25.6 nM in series [3] (setting [4]) and 0.632 nM in series [3] (setting [5]). In addition, in series [2], the 50% cytotoxic concentration (CC50) at 5 days came to 9470 nM.
For `O=C1c2c(O)c(=O)c(-c3nnc(Cc4c(F)cc(F)cc4F)s3)c3n2C2(CCCCN1C2)CC3` (centres unmarked) [Compound 7, 11-hydroxy-9-(5-(2,4,6-trifluorobenzyl)-1,3,4-thiadiazol-2-yl)-3,4,5,6,7,8-hexahydro-2,6a-methano[1,4]diazonino[9,1,2-cd]indolizine-1,10-dione] the same measures were 3.8 nM, 60.8 nM, 0.997 nM and 3800 nM.
For `C[C@H]1C=CC[C@]23C[C@@H](O)c4c(C(=O)NCc5c(F)cc(F)cc5F)c(=O)c(O)c(n42)C(=O)N1C3` (single isomer, unassigned) [Compound 21-1], in that order: 1.04 nM, 27 nM, 0.26 nM and 4840 nM.
For `C[C@H]1C=CC[C@]23CCc4c(C(=O)NCc5c(F)cc(F)cc5F)c(=O)c(O)c(n42)C(=O)N1C3` [Compound 20, (3S,6aS)-11-hydroxy-3-methyl-1,10-dioxo-N-(2,4,6-trifluorobenzyl)-1,3,6,7,8,10-hexahydro-2,6a-methano[1,4]diazonino[9,1,2-cd]indolizine-9-carboxamide] the same measures were 0.83 nM, 16 nM, 0.31 nM and 3340 nM.
Take `O=C(NCc1c(F)cc(F)cc1F)c1c2n3c(c(O)c1=O)C(=O)N1CCCC[C@@]3(C1)[C@H](O)[C@H]2O` (single isomer, unassigned) [Compound 11-1]: the EC50 is 4 nM in series [1], 3.91 nM in series [3] (setting [4]) and 1.16 nM in series [3] (setting [5]). For the same compound, the CC50 at 5 days in series [2] is 50000 nM.
For the compound `C[C@H]1C=CC[C@]23C[C@H](O)c4c(C(=O)NCc5c(F)cc(F)cc5F)c(=O)c(O)c(n42)C(=O)N1C3` (single isomer, unassigned) [Compound 21-2], the values for the EC50 in series [1], in series [3] (setting [4]) and in series [3] (setting [5]) were 0.8 nM, 12 nM and 0.27 nM, respectively. For the same compound, half-maximal cytotoxicity in series [2] (CC50 at 5 days) was put at 5370 nM.
